Test results published in patent publication US9676714B2, “Sulfonylindole derivatives and method for preparing the same” (Daewoong Pharmaceutical Co., Ltd., priority 2013, dated 2017).
Counter-ions that a name gives are not always drawn.

Target: T1, proton pump (H+/K+-ATPase) (Sus scrofa, UniProt P19156)
T1 construct: Gastric vesicles were prepared from hog stomach via centrifugal separation; from tissue; host or cells: hog stomach (gastric vesicles, method of Rabon et al. 1988)
Experiment: Measurement of inhibitory effects on proton pump (H+/K+-ATPase) activities
Type: biochemical
Conditions: hog gastric vesicles, K+-specific H+/K+-ATPase activity, Tris-HCl buffer pH 7.4, 37° C. for 40 minutes, malachite green Pi readout
Outline: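 Hog gastric vesicles in 60 mmol/l Tris-HCl pH 7.4 with 0.5% DMSO were treated with compounds at room temperature; reaction was started with 10 μl of 10 mmol/l ATP stock. Released Pi was read at 570 nm, K+-specific activity taken as the ±K+ difference. IC50 from 4-parameter logistic fit.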

T1 sequence (P19156 whole entry): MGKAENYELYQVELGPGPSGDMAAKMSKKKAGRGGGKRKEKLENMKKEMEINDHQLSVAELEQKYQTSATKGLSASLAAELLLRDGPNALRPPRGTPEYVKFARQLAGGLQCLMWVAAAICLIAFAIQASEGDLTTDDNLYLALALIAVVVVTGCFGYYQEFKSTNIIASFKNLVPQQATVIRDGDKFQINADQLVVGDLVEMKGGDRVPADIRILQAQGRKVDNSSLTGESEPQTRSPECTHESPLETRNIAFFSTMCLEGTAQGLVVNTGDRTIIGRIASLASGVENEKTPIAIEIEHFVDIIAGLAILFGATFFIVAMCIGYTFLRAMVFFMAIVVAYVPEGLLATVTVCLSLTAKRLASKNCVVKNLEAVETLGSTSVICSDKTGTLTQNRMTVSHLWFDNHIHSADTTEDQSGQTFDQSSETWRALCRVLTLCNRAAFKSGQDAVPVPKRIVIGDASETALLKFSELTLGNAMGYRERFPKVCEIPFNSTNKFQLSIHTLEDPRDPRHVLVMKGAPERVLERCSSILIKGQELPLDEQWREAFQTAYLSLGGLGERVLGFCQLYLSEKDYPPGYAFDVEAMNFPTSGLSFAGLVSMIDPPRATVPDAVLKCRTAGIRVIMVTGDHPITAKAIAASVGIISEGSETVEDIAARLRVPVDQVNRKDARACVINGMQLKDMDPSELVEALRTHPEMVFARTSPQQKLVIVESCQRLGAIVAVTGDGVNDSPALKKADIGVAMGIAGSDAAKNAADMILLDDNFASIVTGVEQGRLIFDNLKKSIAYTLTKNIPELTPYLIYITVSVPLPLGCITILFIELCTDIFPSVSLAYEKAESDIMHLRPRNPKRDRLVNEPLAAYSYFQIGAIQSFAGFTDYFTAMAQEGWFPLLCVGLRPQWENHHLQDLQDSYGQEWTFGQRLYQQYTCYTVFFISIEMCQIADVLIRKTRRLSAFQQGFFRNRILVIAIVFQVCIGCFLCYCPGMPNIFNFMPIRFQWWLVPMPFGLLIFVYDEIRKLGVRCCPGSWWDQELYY
T1 sequence (P18434 whole entry partner): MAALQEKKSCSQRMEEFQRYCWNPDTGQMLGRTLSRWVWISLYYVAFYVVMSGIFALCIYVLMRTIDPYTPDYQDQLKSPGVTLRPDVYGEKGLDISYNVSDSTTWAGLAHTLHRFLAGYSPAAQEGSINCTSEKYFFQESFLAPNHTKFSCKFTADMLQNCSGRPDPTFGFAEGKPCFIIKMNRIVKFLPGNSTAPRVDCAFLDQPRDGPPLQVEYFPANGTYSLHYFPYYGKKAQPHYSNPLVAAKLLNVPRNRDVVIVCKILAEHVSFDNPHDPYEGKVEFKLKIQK

Row | Compound | IC50 [µM]
1 | CNCc1cn(S(=O)(=O)c2cccc(C(F)(F)F)c2)c2cc(Cc3ccc(C)c(F)c3F)ccc12 [Example 288, 1-(6-(2,3-difluoro-4-methylbenzyl)-1-((3-(trifluoromethyl)phenyl)sulfonyl)-1H-indol-3-yl)-N-methylmethanamine] | 1.45
2 | CNCc1cn(S(=O)(=O)c2cccc(OC)c2)c2cc(Cc3ccc(C)c(F)c3F)ccc12 [Example 289, 1-(6-(2,3-difluoro-4-methylbenzyl)-1-((3-methoxyphenyl)sulfonyl)-1H-indol-3-yl)-N-methylmethanamine] | 0.78
3 | CNCc1cn(S(=O)(=O)c2cccc(OC(F)F)c2)c2cc(Cc3ccc(C)c(F)c3F)ccc12 [Example 290, 1-(6-(2,3-difluoro-4-methylbenzyl)-1-((3-(difluoromethoxy)phenyl)sulfonyl)-1H-indol-3-yl)-N-methylmethanamine] | 0.93
4 | CNCc1cn(S(=O)(=O)c2cccnc2)c2cc(Cc3ccc(OC)nc3Cl)ccc12 [Example 291, 1-(6-((2-chloro-6-methoxypyridin-3-yl)methyl)-1-(pyridin-3-ylsulfonyl)-1H-indol-3-yl)-N-methylmethanamine hydrochloride] | 0.66
5 | CNCc1cn(S(=O)(=O)c2cccc(F)c2)c2cc(Cc3ccc(OC)nc3Cl)ccc12 [Example 292, 1-(6-((2-chloro-6-methoxypyridin-3-yl)methyl)-1-((3-fluorophenyl)sulfonyl)-1H-indol-3-yl)-N-methylmethanamine hydrochloride] | 0.64
6 | CNCc1cn(S(=O)(=O)c2cccc(Cl)c2)c2cc(Cc3ccc(OC)nc3Cl)ccc12 [Example 293, 1-(6-((2-chloro-6-methoxypyridin-3-yl)methyl)-1-((3-chlorophenyl)sulfonyl)-1H-indol-3-yl)-N-methylmethanamine] | 0.55
7 | CNCc1cn(S(=O)(=O)c2cccc(C(F)(F)F)c2)c2cc(Cc3ccc(OC)nc3Cl)ccc12 [Example 294, 1-(6-((2-chloro-6-methoxypyridin-3-yl)methyl)-1-((3-(trifluoromethyl)phenyl)sulfonyl)-1H-indol-3-yl)-N-methylmethanamine hydrochloride] | 0.63
8 | CNCc1cn(S(=O)(=O)c2cccc(OC)c2)c2cc(Cc3ccc(OC)nc3Cl)ccc12 [Example 295, 1-(6-((2-chloro-6-methoxypyridin-3-yl)methyl)-1-((3-methoxyphenyl)sulfonyl)-1H-indol-3-yl)-N-methylmethanamine] | 0.92
9 | CNCc1cn(S(=O)(=O)c2cccc(OC(F)F)c2)c2cc(Cc3ccc(OC)nc3Cl)ccc12 [Example 296, 1-(6-((2-chloro-6-methoxypyridin-3-yl)methyl)-1-((3-(difluoromethoxy)phenyl)sulfonyl)-1H-indol-3-yl)-N-methylmethanamine] | 0.93
10 | CNCc1cn(S(=O)(=O)c2cccc(OC(F)(F)F)c2)c2cc(Cc3ccc(OC)nc3Cl)ccc12 [Example 297, 1-(6-((2-chloro-6-methoxypyridin-3-yl)methyl)-1-((3-(trifluoromethoxy)phenyl)sulfonyl)-1H-indol-3-yl)-N-methylmethanamine] | 1.19
11 | CNCc1cn(S(=O)(=O)c2ccc(OC(F)F)cc2)c2cc(Cc3ccc(OC)nc3Cl)ccc12 [Example 298, 1-(6-((2-chloro-6-methoxypyridin-3-yl)methyl)-1-((4-(difluoromethoxy)phenyl)sulfonyl)-1H-indol-3-yl)-N-methylmethanamine] | 3.6
12 | CNCc1cn(S(=O)(=O)c2cccc(F)c2)c2cc(Cc3ccc(C)cc3Cl)ccc12 [Example 299, 1-(6-(2-chloro-4-methylbenzyl)-1-((3-fluorophenyl)sulfonyl)-1H-indol-3-yl)-N-methylmethanamine] | 0.27
13 | CNCc1cn(S(=O)(=O)c2ccccc2F)c2cc(Cc3ccc(C)cc3Cl)ccc12 [Example 300, 1-(6-(2-chloro-4-methylbenzyl)-1-((2-fluorophenyl)sulfonyl)-1H-indol-3-yl)-N-methylmethanamine] | 1.53
14 | CNCc1cn(S(=O)(=O)c2cccc(Cl)c2)c2cc(Cc3ccc(C)cc3Cl)ccc12 [Example 301, 1-(6-(2-chloro-4-methylbenzyl)-1-((3-chlorophenyl)sulfonyl)-1H-indol-3-yl)-N-methylmethanamine] | 0.79
15 | CNCc1cn(S(=O)(=O)c2cccc(C(F)(F)F)c2)c2cc(Cc3ccc(C)cc3Cl)ccc12 [Example 302, 1-(6-(2-chloro-4-methylbenzyl)-1-((3-(trifluoromethyl)phenyl)sulfonyl)-1H-indol-3-yl)-N-methylmethanamine] | 0.32
16 | CNCc1cn(S(=O)(=O)c2cccc(OC)c2)c2cc(Cc3ccc(C)cc3Cl)ccc12 [Example 303, 1-(6-(2-chloro-4-methylbenzyl)-1-((3-methoxyphenyl)sulfonyl)-1H-indol-3-yl)-N-methylmethanamine] | 0.47
17 | CNCc1cn(S(=O)(=O)c2cccc(OC(F)F)c2)c2cc(Cc3ccc(C)cc3Cl)ccc12 [Example 304, 1-(6-(2-chloro-4-methylbenzyl)-1-((3-(difluoromethoxy)phenyl)sulfonyl)-1H-indol-3-yl)-N-methylmethanamine] | 0.6

Row | Compound | IC50 [µM]
18 | CNCc1cn(S(=O)(=O)c2cccc(OC(F)(F)F)c2)c2cc(Cc3ccc(C)cc3Cl)ccc12 [Example 305, 1-(6-(2-chloro-4-methylbenzyl)-1-((3-(trifluoromethoxy)phenyl)sulfonyl)-1H-indol-3-yl)-N-methylmethanamine] | 0.61
19 | CNCc1cn(S(=O)(=O)c2ccc(F)cc2)c2cc(Cc3ccc(C)cc3Cl)ccc12 [Example 306] | 0.68
20 | CNCc1cn(S(=O)(=O)c2ccc(OC)cc2)c2cc(Cc3ccc(C)cc3Cl)ccc12 [Example 307, 1-(6-(2-chloro-4-methylbenzyl)-1-((4-methoxyphenyl)sulfonyl)-1H-indol-3-yl)-N-methylmethanamine] | 1.21
21 | CNCc1cn(S(=O)(=O)c2ccc(OC(F)F)cc2)c2cc(Cc3ccc(C)cc3Cl)ccc12 [Example 308, 1-(6-(2-chloro-4-methylbenzyl)-1-((4-(difluoromethoxy)phenyl)sulfonyl)-1H-indol-3-yl)-N-methylmethanamine] | 1.34
22 | CNCc1cn(S(=O)(=O)c2cccnc2)c2cc(Oc3ccccc3[N+](=O)[O-])ccc12 [Example 310, N-methyl-1-(6-(2-nitrophenoxy)-1-(pyridin-3-ylsulfonyl)-1H-indol-3-yl)methanamine hydrochloride] | 0.33
23 | CNCc1cn(S(=O)(=O)c2cccnc2)c2cc(Oc3ccc(C(F)(F)F)cc3Cl)ccc12 [Example 311, 1-(6-(2-chloro-4-(trifluoromethyl)phenoxy)-1-(pyridin-3-ylsulfonyl)-1H-indol-3-yl)-N-methylmethanamine hydrochloride] | 4.17
24 | CNCc1cn(S(=O)(=O)c2cccnc2)c2cc(Oc3ncc(C(F)(F)F)cc3Cl)ccc12 [Example 312, 1-(6-((3-chloro-5-(trifluoromethyl)pyridin-2-yl)oxy)-1-(pyridin-3-ylsulfonyl)-1H-indol-3-yl)-N-methylmethanamine hydrochloride] | 0.66
25 | CNCc1cn(S(=O)(=O)c2cccnc2)c2cc(Oc3ncc(F)cn3)ccc12 [Example 313, 1-(6-((5-fluoropyrimidin-2-yl)oxy)-1-(pyridin-3-ylsulfonyl)-1H-indol-3-yl)-N-methylmethanamine hydrochloride] | 25
26 | CNCc1cn(S(=O)(=O)c2cccnc2)c2cc(Oc3cc(Cl)ncn3)ccc12 [Example 314, 1-(6-((6-chloropyrimidin-4-yl)oxy)-1-(pyridin-3-ylsulfonyl)-1H-indol-3-yl)-N-methylmethanamine hydrochloride] | 19.4
27 | CCNCc1cn(S(=O)(=O)c2cccc(C(F)(F)F)c2)c2cc(Nc3ccc(OC)nc3Cl)ccc12 [Example 317, N-(2-chloro-6-methoxypyridin-3-yl)-3-((ethylamino)methyl)-1-((3-(trifluoromethyl)phenyl)sulfonyl)-1H-indol-6-amine] | 1.92
28 | COc1ccc(Nc2ccc3c(CN4CCCC4)cn(S(=O)(=O)c4cccc(C(F)(F)F)c4)c3c2)c(Cl)n1 [Example 318, N-(2-chloro-6-methoxypyridin-3-yl)-3-(pyrrolidin-1-ylmethyl)-1-((3-(trifluoromethyl)phenyl)sulfonyl)-1H-indol-6-amine] | 4.25
29 | COc1ccc(Nc2ccc3c(CN(C)C)cn(S(=O)(=O)c4cccc(C(F)(F)F)c4)c3c2)c(Cl)n1 [Example 319, N-(2-chloro-6-methoxypyridin-3-yl)-3-((dimethylamino)methyl)-1-((3-(trifluoromethyl)phenyl)sulfonyl)-1H-indol-6-amine] | 1.24
30 | CNC(=O)c1cn(S(=O)(=O)c2cccc(C(F)(F)F)c2)c2cc(Nc3ccc(OC)nc3Cl)ccc12 [Example 320, 6-((2-chloro-6-methoxypyridin-3-yl)amino)-N-methyl-1-((3-(trifluoromethyl)phenyl)sulfonyl)-1H-indol-3-carboxamide] | 20
31 | COc1ccc(Nc2ccc3c(C(=O)N(C)C)cn(S(=O)(=O)c4cccc(C(F)(F)F)c4)c3c2)c(Cl)n1 [Example 321, 6-((2-chloro-6-methoxypyridin-3-yl)amino)-N,N-dimethyl-1-((3-(trifluoromethyl)phenyl)sulfonyl)-1H-indol-3-carboxamide] | 3.35
32 | Cc1ccc(Nc2ccc3c(C(=O)N(C)C)cn(S(=O)(=O)c4cccnc4)c3c2)c(F)c1 [Example 322, 6-((2-fluoro-4-methylphenyl)amino)-N,N-dimethyl-1-(pyridin-3-ylsulfonyl)-1H-indol-3-carboxamide] | 24
33 | Cc1ccc(Nc2ccc3c(C(=O)N(C)C)cn(S(=O)(=O)c4cccnc4)c3c2)c(Cl)c1 [Example 323, 6-((2-chloro-4-methylphenyl)amino)-N,N-dimethyl-1-(pyridin-3-ylsulfonyl)-1H-indol-3-carboxamide] | 20
